# Test results taken from publication PMC2631241 (Journal of combinatorial chemistry, 2008).
# Target: human serum albumin (HSA) (Homo sapiens, UniProt P02768)
# Test: 1D 1H NMR line-broadening titration of ligand with HSA
# human serum albumin (HSA), sequence (P02768 25-609): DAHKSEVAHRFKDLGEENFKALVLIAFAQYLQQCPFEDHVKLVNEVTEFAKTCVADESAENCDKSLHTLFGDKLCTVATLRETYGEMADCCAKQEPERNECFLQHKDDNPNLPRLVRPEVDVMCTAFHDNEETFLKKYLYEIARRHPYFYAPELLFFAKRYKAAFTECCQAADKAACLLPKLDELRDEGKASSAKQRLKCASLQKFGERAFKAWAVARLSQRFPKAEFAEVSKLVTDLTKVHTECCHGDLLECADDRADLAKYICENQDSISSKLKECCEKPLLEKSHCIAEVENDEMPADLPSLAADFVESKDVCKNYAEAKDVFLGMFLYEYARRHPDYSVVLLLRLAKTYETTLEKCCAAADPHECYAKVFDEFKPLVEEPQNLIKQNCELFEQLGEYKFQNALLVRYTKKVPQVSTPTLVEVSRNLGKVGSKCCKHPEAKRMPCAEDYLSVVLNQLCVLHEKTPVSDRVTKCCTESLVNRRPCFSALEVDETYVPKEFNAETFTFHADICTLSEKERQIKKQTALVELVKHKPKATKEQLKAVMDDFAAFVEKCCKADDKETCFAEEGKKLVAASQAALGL
row,Kd,Compound
1,1.7 ± 3.4 µM,"CCOC(=O)C(C)(C)Oc1ccc(Cl)cc1 [Clofibrate, clofibrate]"
2,36.8 ± 6.5 µM,"O=S1(=O)OC(c2ccc(O)cc2)(c2ccc(O)cc2)c2ccccc21 [Phenol Red, phenol red]"
3,132 ± 12.5 µM,"O=C1NC(=O)C(c2ccccc2)(c2ccccc2)N1 [Phenytoin, phenytoin]"
